Measurements reported in patent US20220228164A1, “ENGINEERED ANTIGEN PRESENTING CELLS” (Neogene Therapeutics B.V., priority 2021, published 2022).

How the values were obtained:
Assay type in all cases: cell-based, human
[1] = system: TCR-KO Jurkat T cells expressing the GCN1L1 TCR; test: Peptide electroporation of BCL-6/BCL-xL-CD40L immortalized B cells, co-culture with TCR Jurkat T cells, CD69 (Examples 11, 12); conditions: for presentation of the GCN1L1 antigen after peptide electroporation (CD69+ of live cells): electroporated into BCL-6/BCL-xL-CD40L immortalized B cells
Description: Immortalized primary human B cells that are electroporated with a polypeptide of a uniform length (25mer) will be efficiently processed and present T cell epitopes encoded within the polypeptide via the MHC class I pathway and activate T cells expressing an MHC class I restricted TCR specific for the T cell epitope encoded within the polypeptide. BCL-6/BCL-xL-CD40L immortalized B cells from a healthy donor were electroporated with short (10mer) (ALLETPSLLL, SEQ ID NO: 5) or long (25mer) ([…], SEQ ID NO: 6) peptides encoding the GCN1L1 mutated peptide or CMV mutated long peptide ([…], SEQ ID NO: 7), using a method known to the skilled artisan. Briefly, for each sample, 0.2e6 B cells were harvested and washed with PBS. After removal of all PBS, the dry pellet was resuspended in electroporation buffer (SF-buffer, Lonza) at a concentration of 25e6 cells per mL. Of this mixture, 20 μL per sample was added to a 96 well tissue-culture-plate that contains the appropriate amount of peptide resulting in the indicated peptide concentration. Cells were transferred to a 16-well electroporation strip (Lonza) and subsequently electroporated using the DN100 program (Lonza Amaxa). Post-electroporation, cells were rested for 10 minutes at 37° C. and transferred to a 96 well round bottom tissue-culture plate in a final volume of 200 μL of Complete B cell Medium (RPMI1640 medium supplemented with 10% (v/v) Fetal Calf Serum (FCS), 1% (v/v) Penicillin/Streptomycin (P/S), 1% (v/v) Sodium Pyruvate, 1% (v/v) Non-essential amino acids, 1% (v/v) Glutamax, 50 nM 2-Mercaptoethanol) and incubated for 0, 2, 4, 5, 6, 10 or 24 hrs at 37° C. The resting period post peptide electroporation allows for exogenous loading of the peptide onto the target cells in a parallel experimental condition. […] After 20 hours, cells were stained with antibodies directed against CD8 and CD69 and specific recognition by TCR td T cells was measured by CD69 upregulation on a flow cytometer. […]

[2] = system: Jurkat T cells expressing the class II restricted MAGE-A3 TCR; test: Peptide electroporation of BCL-6/BCL-xL-CD40L immortalized B cells, co-culture with TCR Jurkat T cells, CD69 (Example 12); conditions: 25mer electroporated; MHC class II restricted TCR
[3] = system: TCR-KO Jurkat T cells expressing the CMV1 TCR; test: Peptide electroporation of BCL-6/BCL-xL-CD40L immortalized B cells, co-culture with TCR Jurkat T cells, CD69 (Examples 11, 12); conditions: 25mer electroporated; MHC class I restricted TCR
Description: Immortalized primary human B cells that are electroporated with a polypeptide of a uniform length (25mer) will be efficiently processed and present T cell epitopes encoded within the polypeptide via the MHC class I pathway and activate T cells expressing an MHC class I restricted TCR specific for the T cell epitope encoded within the polypeptide. BCL-6/BCL-xL-CD40L immortalized B cells from a healthy donor were electroporated with short (10mer) (ALLETPSLLL, SEQ ID NO: 5) or long (25mer) ([…], SEQ ID NO: 6) peptides encoding the GCN1L1 mutated peptide or CMV mutated long peptide ([…], SEQ ID NO: 7), using a method known to the skilled artisan. Briefly, for each sample, 0.2e6 B cells were harvested and washed with PBS. After removal of all PBS, the dry pellet was resuspended in electroporation buffer (SF-buffer, Lonza) at a concentration of 25e6 cells per mL. […] After 20 hours, cells were stained with antibodies directed against CD8 and CD69 and specific recognition by TCR td T cells was measured by CD69 upregulation on a flow cytometer.
A CMV epitope was electroporated or loaded onto BCL-6/BCL-xL/CD40L immortalized B cells. T cell activation was measured for various concentrations of peptide after 6, 10 or 24 hours of post-electroporation resting (FIG. 17A) or were loaded with peptide (FIG. 17B) for similar time-points. […]

With “ALLETPSLLL [short GCN1L1 peptide, short (10mer) peptide encoding the GCN1L1 mutated peptide]” the “presentation of the GCN1L1 antigen after peptide electroporation (CD69+ of live cells)” value [1] was “efficient presentation”.
In the case of “FSWNVKAALLETPSLLLAKVGIALK [long GCN1L1 peptide, long (25mer) peptide encoding the GCN1L1 mutated peptide]”, the “post-electroporation rest with which the peptide elicits a response (% CD69)” value (“post-electroporation rest … (% CD69)” for short) ([1]; 25mer electroporated, MHC class I restricted TCR) is reported as ≥ 2 h and the “presentation of the GCN1L1 antigen after peptide electroporation (CD69+ of live cells)” value [1] is reported as “efficient presentation”.
ILGDPKKLLTQHFVQENYLEYRQVP [MAGEA3] was tested, and the “post-electroporation rest … (% CD69)” value [2] was ≥ 2 h.
“WQAGILARNLVPMVATVQGQNLKYQ [long CMV1 peptide, CMV long (25mer) peptide]” was tested, and the “post-electroporation rest … (% CD69)” value [3] was ≥ 2 h.
